According to patent US20090155784A1, “ASSESSMENT OF ASTHMA AND ALLERGEN-DEPENDENT GENE EXPRESSION” (Wyeth, priority 2007, published 2009):

Test system: PBMCs from healthy volunteers
Test: HG-U133A baseline gene expression in PBMCs of healthy volunteers (HV), cPLA2 inhibitor in the absence of allergen (no AG)
Type: cell-based, human
Source text: PBMCs were stimulated in vitro with a cocktail containing 4 different allergens from house dust mite, ragweed and cat. Recombinant allergens, Der p1, Der f2, Fel d1 (Indoor Biotech, Charlottesville, Va.) and natural ragweed allergen (Allergy Lab, Seattle, Wash.) were selected and screened for endotoxin contamination (LAL Endotoxin Test, Catalog #HIT302, sensitivity, 0.0001 Eu/ml, Cell Sciences, Canton, Mass.). The sensitivity of the subjects was unknown but the allergens were chosen based on the estimate that 80% of allergic individuals are believed to react to one or more of these allergens. Culture medium contained RPMI-1640 (Sigma) with 10% heat inactivated FCS (Sigma St. Louis, Mo.) and 100 unit/mL Penicillin and […] Streptomycin and 0.292 mg/mL Glutamine (GIBCO RL Invitrogen, Carlsbad, Calif.). The final allergen cocktail concentrations in culture medium were: Der p1 and Der f2 (dust mite), 1 mg/ml; Fel d1 (cat), 1.25 mg/ml; ragweed, 125 mg/ml. The total level of endotoxin contamination in culture medium was 0.057 Eu/ml. The cPLA2 inhibitor 4-{3-[1-benzhydryl-5-chloro-2-(2-{[(2,6-dimethylbenzyl)sulfonyl]amino}ethyl)-1H-indol-3-yl]propyl}benzoic acid was used at a concentration of 0.3 μM/ml. Zileuton, a 5-lipoxygenase inhibitor, was added at a concentration of 5 μM. The inhibitory activity of both the cPLA2 inhibitor and Zileuton samples were verified in a human whole blood assay. After 6 days in culture approximately 200 μL of supernatant was removed using an 8-channel pipettor without disturbing the cell pellet and placed into a collection plate for cytokine ELISA assays. To the remaining cell pellet 100 μL of RLT lysis buffer containing 1% beta-mercaptoethanol was added and snap frozen for RNA purification.
RNA was purified using QIA shredders and Rneasy mini kits (Qiagen, Valencia, Calif.). PBMC pellets frozen in RLT lysis buffer containing 1% β-mercaptoethanol were thawed and processed for total RNA isolation using the QIA shredder and RNeasy mini kit. A phenol:chloroform extraction was then performed, and the RNA was repurified using the RNeasy mini kit reagents. Eluted RNA was quantified using a Spectramax96 well plate UV reader (Molecular Devices, Sunnyvale, Calif., USA) monitoring A260/280 OD values. The quality of each RNA sample was assessed by capillary electrophoresis alongside an RNA molecular weight ladder on the Agilent 2100 bioanalyzer (Agilent Technologies, Palo Alto, Calif., USA). RNA samples were assigned quality values of intact (distinct 18S and 28S bands); partially degraded (discernible 18S and 28S bands with presence of low molecular weight bands) or completely degraded (no discernible 18S and 28S bands).
Labeled targets for oligonucleotide arrays were prepared using a modification of the procedure described by Lockhart et al. (Lockhart (1996) Nat. Biotechnol. 14:1675-80). Labeled targets were hybridized to the HG-U133A Affymetrix GeneChip Array as described in the Affymetrix technical manual. Eleven biotinylated control transcripts ranging in abundance from 3 parts per million (ppm) to 100 ppm were spiked into each sample to function as a standard curve (Hill (2001) Genome Biol. 2:RESEARCH0055). GeneChip MAS 5.0 software was used to evaluate the hybridization intensity, compute the signal value for each probe set and make an absent/present call.
GeneChips were required to pass the pre-set quality control criteria that the RNA quality metric required a 5′:3′ ratio. Two asthma subjects were excluded from the study due to failure to meet the RNA quality metric and 2 GeneChips from the group treated with cPLA2a inhibitor were excluded for the same reason. The signal value for each probe set was converted into a frequency value representative of the number of transcripts present in 10^6 transcripts by reference to the standard curve (Hill (2001) Genome Biol. 2:RESEARCH0055). […]

[1] = healthy population, no allergen

Which results are given for Cc1cccc(C)c1CS(=O)(=O)NCCc1c(CCCc2ccc(C(=O)O)cc2)c2cc(Cl)ccc2n1C(c1ccccc1)c1ccccc1 [cPLA2 inhibitor, 4-{3-[1-benzhydryl-5-chloro-2-(2-{[(2,6-dimethylbenzyl)sulfonyl]amino}ethyl)-1H-indol-3-yl]propyl}benzoic acid]?
probes significantly downregulated in the presence of cPLA2 inhibition [1]: 43 probes; probes significantly upregulated in the presence of cPLA2 inhibition [1]: 36 probes; Fold Change cPLA2 inhibitor vs. no AG HV (probeset 44673_at, gene SN): 1.425 fold; Fold Change cPLA2 inhibitor vs. no AG HV (probeset 58696_at, gene RRP41): 1.202 fold; Fold Change cPLA2 inhibitor vs. no AG HV (probeset 200886_s_at, gene PGAM1): −1.153 fold; Fold Change cPLA2 inhibitor vs. no AG HV (probeset 200887_s_at, gene STAT1): 1.158 fold; Fold Change cPLA2 inhibitor vs. no AG HV (probeset 200923_at, gene LGALS3BP): 1.268 fold; Fold Change cPLA2 inhibitor vs. no AG HV (probeset 200976_s_at, gene TAX1BP1): 1.159 fold; Fold Change cPLA2 inhibitor vs. no AG HV (probeset 201061_s_at, gene STOM): 1.242 fold; Fold Change cPLA2 inhibitor vs. no AG HV (probeset 201090_x_at, gene K-ALPHA-1): 1.122 fold; Fold Change cPLA2 inhibitor vs. no AG HV (probeset 201118_at, gene PGD): 1.22 fold; Fold Change cPLA2 inhibitor vs. no AG HV (probeset 201298_s_at, gene C2ORF6): 1.106 fold; Fold Change cPLA2 inhibitor vs. no AG HV (probeset 201463_s_at, gene TALDO1): 1.153 fold; Fold Change cPLA2 inhibitor vs. no AG HV (probeset 201649_at, gene UBE2L6): 1.19 fold; Fold Change cPLA2 inhibitor vs. no AG HV (probeset 201785_at, gene RNASE1): −3.602 fold; Fold Change cPLA2 inhibitor vs. no AG HV (probeset 201945_at, gene FURIN): 1.348 fold; Fold Change cPLA2 inhibitor vs. no AG HV (probeset 202068_s_at, gene LDLR): 1.388 fold; Fold Change cPLA2 inhibitor vs. no AG HV (probeset 202193_at, gene LIMK2): 1.457 fold; Fold Change cPLA2 inhibitor vs. no AG HV (probeset 202245_at, gene LSS): 1.264 fold; Fold Change cPLA2 inhibitor vs. no AG HV (probeset 202269_x_at, gene GBP1): 1.475 fold; Fold Change cPLA2 inhibitor vs. no AG HV (probeset 202307_s_at, gene TAP1): 1.313 fold; Fold Change cPLA2 inhibitor vs. no AG HV (probeset 202308_at, gene SREBF1): 1.436 fold; Fold Change cPLA2 inhibitor vs. no AG HV (probeset 202510_s_at, gene TNFAIP2): 1.355 fold; Fold Change cPLA2 inhibitor vs. no AG HV (probeset 202531_at, gene IRF1): 1.259 fold; Fold Change cPLA2 inhibitor vs. no AG HV (probeset 202626_s_at, gene LYN): 1.54 fold; Fold Change cPLA2 inhibitor vs. no AG HV (probeset 202841_x_at, gene OGFR): 1.239 fold; Fold Change cPLA2 inhibitor vs. no AG HV (probeset 202847_at, gene PCK2): 1.344 fold; Fold Change cPLA2 inhibitor vs. no AG HV (probeset 202859_x_at, gene IL8): 2.42 fold; Fold Change cPLA2 inhibitor vs. no AG HV (probeset 202917_s_at, gene S100A8): 1.662 fold; Fold Change cPLA2 inhibitor vs. no AG HV (probeset 203922_s_at, gene CYBB): 1.52 fold; Fold Change cPLA2 inhibitor vs. no AG HV (probeset 203923_s_at, gene CYBB): 1.214 fold; Fold Change cPLA2 inhibitor vs. no AG HV (probeset 204034_at, gene ETHE1): 1.212 fold; Fold Change cPLA2 inhibitor vs. no AG HV (probeset 204224_s_at, gene GCH1): 1.48 fold; Fold Change cPLA2 inhibitor vs. no AG HV (probeset 204326_x_at, gene UNK_NM_002450): 2.024 fold; Fold Change cPLA2 inhibitor vs. no AG HV (probeset 204745_x_at, gene MT1G): 2.215 fold; Fold Change cPLA2 inhibitor vs. no AG HV (probeset 204858_s_at, gene ECGF1): 1.292 fold; Fold Change cPLA2 inhibitor vs. no AG HV (probeset 204929_s_at, gene VAMP5): 1.472 fold; Fold Change cPLA2 inhibitor vs. no AG HV (probeset 205322_s_at, gene MTF1): 1.553 fold; Fold Change cPLA2 inhibitor vs. no AG HV (probeset 205872_x_at, gene UNK_NM_022359): 1.629 fold; Fold Change cPLA2 inhibitor vs. no AG HV (probeset 205992_s_at, gene IL15): 1.522 fold; Fold Change cPLA2 inhibitor vs. no AG HV (probeset 206025_s_at, gene TNFAIP6): 1.671 fold; Fold Change cPLA2 inhibitor vs. no AG HV (probeset 206026_s_at, gene TNFAIP6): 1.866 fold; Fold Change cPLA2 inhibitor vs. no AG HV (probeset 206637_at, gene GPR105): 1.797 fold; Fold Change cPLA2 inhibitor vs. no AG HV (probeset 207091_at, gene P2RX7): 1.272 fold; Fold Change cPLA2 inhibitor vs. no AG HV (probeset 207277_at, gene CD209): 1.574 fold; Fold Change cPLA2 inhibitor vs. no AG HV (probeset 207533_at, gene CCL1): 2.229 fold; Fold Change cPLA2 inhibitor vs. no AG HV (probeset 207697_x_at, gene LILRB2): 1.484 fold; Fold Change cPLA2 inhibitor vs. no AG HV (probeset 208071_s_at, gene LAIR1): 1.82 fold; Fold Change cPLA2 inhibitor vs. no AG HV (probeset 208373_s_at, gene P2RY6): 1.593 fold; Fold Change cPLA2 inhibitor vs. no AG HV (probeset 208671_at, gene TDE2): −1.137 fold; Fold Change cPLA2 inhibitor vs. no AG HV (probeset 208699_x_at, gene TKT): 1.243 fold
